ChEMBL document CHEMBL1135873, “Neuroprotection against ischemic brain injury conferred by a novel nitrate ester” (Bioorg Med Chem Lett, 2002)
pEC50: −log10 of the molar value.

Species on record: Rattus norvegicus
Assay: Effective concentration for relaxation of isolated rat aortic strips, submaximally contracted with phenylephrine at 0.1 uM was determined
Assay type: functional
Settings: Aorta

SMILES: O=[N+]([O-])OCC(CO[N+](=O)[O-])O[N+](=O)[O-] [NITROGLYCERIN]
- pEC50: 5.72
